Data reported in ChEMBL document CHEMBL1201862, “PubChem BioAssay data set” (2004).
Active and inactive are the calls of the source.

Tests used:
[1] = target: DNA (cytosine-5)-methyltransferase 1 (Homo sapiens, UniProt P26358); assay: DNMT1 methyltransferase inhibitors, confirmation, biochemical, fluorescent molecular beacon (AID 602386); assay type: functional
Hexokinase HKDC1 = Hexokinase HKDC1 (Homo sapiens, UniProt Q2TB90); assay: HKDC1 hexokinase inhibitors, dose response, biochemical, W721R variant (AID 504729); assay type: functional
[2] = target: 26S proteasome non-ATPase regulatory subunit 14 (Homo sapiens, UniProt O00487); assay: inhibition of proteasome subunit RPN11 – biochemical, fluorescence polarization, uHTS hits, confirmation (AID 602368); assay type: functional
26S proteasome non-ATPase regulatory subunit 14, sequence (O00487 whole entry): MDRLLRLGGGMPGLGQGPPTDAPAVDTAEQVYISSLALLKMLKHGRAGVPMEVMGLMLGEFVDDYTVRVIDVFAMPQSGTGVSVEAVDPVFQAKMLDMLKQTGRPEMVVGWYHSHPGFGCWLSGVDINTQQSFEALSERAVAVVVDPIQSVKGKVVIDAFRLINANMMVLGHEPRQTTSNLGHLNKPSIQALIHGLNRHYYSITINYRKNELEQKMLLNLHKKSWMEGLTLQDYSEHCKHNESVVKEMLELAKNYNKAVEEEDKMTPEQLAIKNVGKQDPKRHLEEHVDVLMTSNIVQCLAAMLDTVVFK

[3] = target: 72 kDa type IV collagenase (Homo sapiens, UniProt P08253); assay: Dose Response validation of uHTS RPN11 inhibitor hits using a MMP-2 Fluorescence assay.; assay type: functional
[4] = target: Induced myeloid leukemia cell differentiation protein Mcl-1 (Homo sapiens, UniProt Q07820); assay: MCL1-BIM BH3 interaction inhibitors, dose response, biochemical, fluorescence polarization, BIM-BH3 peptide, 1536-well (AID 2217)
Induced myeloid leukemia cell differentiation protein Mcl-1, sequence (Q07820 whole entry): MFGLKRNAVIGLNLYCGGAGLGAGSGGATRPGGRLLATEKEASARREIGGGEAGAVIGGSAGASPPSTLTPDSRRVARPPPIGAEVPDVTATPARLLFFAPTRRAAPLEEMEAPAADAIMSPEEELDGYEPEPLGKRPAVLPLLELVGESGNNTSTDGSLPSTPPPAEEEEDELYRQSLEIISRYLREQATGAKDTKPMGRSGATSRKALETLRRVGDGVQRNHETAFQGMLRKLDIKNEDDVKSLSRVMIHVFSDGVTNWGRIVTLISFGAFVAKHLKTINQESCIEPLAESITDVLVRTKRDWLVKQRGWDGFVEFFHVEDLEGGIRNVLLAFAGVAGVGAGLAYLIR

Bcl-2-like protein 1 = Bcl-2-like protein 1 (Homo sapiens, UniProt Q07817); assay: BCL-XL inhibitors, dose response, selectivity assay for MCL1 inhibitor project, biochemical, fluorescence polarization, 1536-well (AID 2218)
Bcl-2-like protein 1, sequence (Q07817 whole entry): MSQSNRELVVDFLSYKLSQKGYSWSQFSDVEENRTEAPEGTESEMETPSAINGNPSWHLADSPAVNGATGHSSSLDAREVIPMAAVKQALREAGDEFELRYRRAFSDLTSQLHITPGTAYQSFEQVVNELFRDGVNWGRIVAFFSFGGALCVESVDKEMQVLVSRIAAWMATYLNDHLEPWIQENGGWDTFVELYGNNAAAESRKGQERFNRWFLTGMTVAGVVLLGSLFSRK

Prothrombin = Prothrombin (Bos taurus, UniProt P00735); assay: thrombin inhibition, dose response, biochemical, fluorescence polarization, uHTS hits (AID 602369); assay type: functional
[5] = Luminescence Cell-Based Dose Retest to Confirm Inhibitors of Cancer Stem Cells. [Related pubchem assays (depositor defined):AID2717, AID2721]; assay type: functional; conditions: Homo sapiens
[6] = target: Scavenger receptor class B member 1 (Mus musculus, UniProt Q61009); assay: inhibitors of SR-BI mediated HDL lipid uptake, dose response, ldlA[mSR-BI] cells, fluorescence, cherry pick (AID 493194); assay type: functional, cell-based;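 further: cellular uptake of fluorescent DiI-labeled HDL measured as cell fluorescence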
Scavenger receptor class B member 1, sequence (Q61009 whole entry): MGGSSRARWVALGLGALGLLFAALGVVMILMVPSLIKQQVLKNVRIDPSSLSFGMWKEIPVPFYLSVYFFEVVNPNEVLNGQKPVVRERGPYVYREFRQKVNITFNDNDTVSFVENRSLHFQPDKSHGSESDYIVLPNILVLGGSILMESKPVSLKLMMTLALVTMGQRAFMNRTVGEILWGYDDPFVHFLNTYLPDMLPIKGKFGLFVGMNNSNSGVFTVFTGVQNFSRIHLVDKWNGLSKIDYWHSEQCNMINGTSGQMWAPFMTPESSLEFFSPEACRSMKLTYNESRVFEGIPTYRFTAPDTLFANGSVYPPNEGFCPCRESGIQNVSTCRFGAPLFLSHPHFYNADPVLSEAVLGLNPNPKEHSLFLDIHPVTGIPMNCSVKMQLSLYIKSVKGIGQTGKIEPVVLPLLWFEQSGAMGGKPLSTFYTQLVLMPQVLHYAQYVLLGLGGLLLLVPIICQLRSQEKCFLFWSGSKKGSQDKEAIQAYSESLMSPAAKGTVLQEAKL

[7] = target: T1, Dual specificity protein phosphatase 6 (Rattus norvegicus, UniProt Q64346)
T1 sequence (Q64346 whole entry): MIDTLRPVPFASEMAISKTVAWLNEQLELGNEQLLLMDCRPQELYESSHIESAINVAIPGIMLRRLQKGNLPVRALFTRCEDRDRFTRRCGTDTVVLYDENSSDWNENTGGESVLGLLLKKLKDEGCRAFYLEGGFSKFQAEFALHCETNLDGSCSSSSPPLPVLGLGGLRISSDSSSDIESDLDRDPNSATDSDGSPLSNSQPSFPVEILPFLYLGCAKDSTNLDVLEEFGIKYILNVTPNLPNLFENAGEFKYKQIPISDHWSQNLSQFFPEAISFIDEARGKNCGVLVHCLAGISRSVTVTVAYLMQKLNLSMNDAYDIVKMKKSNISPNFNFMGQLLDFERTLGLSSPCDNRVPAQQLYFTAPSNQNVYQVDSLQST

[8] = target: Heat shock cognate 71 kDa protein (Homo sapiens, UniProt P11142); assay: In Vitro Hsc70 Dose Response Fluorescence Polarization Assay. [Related pubchem assays: 1072 ]
[9] = target: T1, Dual specificity protein phosphatase 6; assay type: functional
[10] = target: Heat shock 70 kDa protein 1A (Homo sapiens, UniProt P0DMV8); assay: Hsp70 inhibitors, SAR follow-up, biochemical, fluorescence polarization (AID 1072)
[11] = target: Glyceraldehyde-3-phosphate dehydrogenase (Homo sapiens, UniProt P04406)
Glyceraldehyde-3-phosphate dehydrogenase, sequence (P04406 whole entry): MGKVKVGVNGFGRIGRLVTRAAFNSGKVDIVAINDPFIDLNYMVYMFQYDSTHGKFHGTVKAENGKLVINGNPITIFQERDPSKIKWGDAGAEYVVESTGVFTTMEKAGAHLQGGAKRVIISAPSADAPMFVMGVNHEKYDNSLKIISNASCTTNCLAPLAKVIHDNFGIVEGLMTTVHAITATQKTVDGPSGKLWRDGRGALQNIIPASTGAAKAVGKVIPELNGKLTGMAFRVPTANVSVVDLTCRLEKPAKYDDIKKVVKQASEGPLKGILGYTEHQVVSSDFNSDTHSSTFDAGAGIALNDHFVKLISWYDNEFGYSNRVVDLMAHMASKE

[12] = target: T2, Tyrosine-protein phosphatase non-receptor type 7 (Homo sapiens, UniProt P35236); assay type: functional
T2 sequence (P35236 whole entry): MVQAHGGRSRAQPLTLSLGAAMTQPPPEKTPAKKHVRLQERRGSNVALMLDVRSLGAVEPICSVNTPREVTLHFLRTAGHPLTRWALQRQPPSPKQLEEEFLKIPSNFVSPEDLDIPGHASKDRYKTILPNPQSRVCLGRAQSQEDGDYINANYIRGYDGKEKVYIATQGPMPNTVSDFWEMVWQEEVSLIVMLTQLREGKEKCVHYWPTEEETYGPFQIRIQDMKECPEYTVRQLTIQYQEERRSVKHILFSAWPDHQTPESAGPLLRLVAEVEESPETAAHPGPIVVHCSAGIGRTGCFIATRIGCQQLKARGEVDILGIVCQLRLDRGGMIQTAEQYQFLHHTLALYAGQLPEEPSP

SUMO-activating enzyme [13] = target: T3, SUMO-activating enzyme (Homo sapiens, UniProt Q9UBT2); assay: inhibitors of in vitro SUMOylation cascade, primary screen, biochemical, HTRF, uHTS (AID 2006); assay type: protein-complex assay
T3 sequence (Q9UBE0 whole entry): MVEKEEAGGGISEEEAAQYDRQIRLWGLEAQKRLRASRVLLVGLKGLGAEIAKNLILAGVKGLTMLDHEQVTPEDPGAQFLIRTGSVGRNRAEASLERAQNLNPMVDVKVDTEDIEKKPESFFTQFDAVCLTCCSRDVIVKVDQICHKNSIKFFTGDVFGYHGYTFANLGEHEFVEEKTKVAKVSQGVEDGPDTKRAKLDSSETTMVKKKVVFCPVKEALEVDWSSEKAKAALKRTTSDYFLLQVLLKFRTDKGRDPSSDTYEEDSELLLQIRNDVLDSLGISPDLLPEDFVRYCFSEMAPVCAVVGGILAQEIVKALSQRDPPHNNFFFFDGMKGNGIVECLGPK
T3 sequence (Q9UBT2 whole entry): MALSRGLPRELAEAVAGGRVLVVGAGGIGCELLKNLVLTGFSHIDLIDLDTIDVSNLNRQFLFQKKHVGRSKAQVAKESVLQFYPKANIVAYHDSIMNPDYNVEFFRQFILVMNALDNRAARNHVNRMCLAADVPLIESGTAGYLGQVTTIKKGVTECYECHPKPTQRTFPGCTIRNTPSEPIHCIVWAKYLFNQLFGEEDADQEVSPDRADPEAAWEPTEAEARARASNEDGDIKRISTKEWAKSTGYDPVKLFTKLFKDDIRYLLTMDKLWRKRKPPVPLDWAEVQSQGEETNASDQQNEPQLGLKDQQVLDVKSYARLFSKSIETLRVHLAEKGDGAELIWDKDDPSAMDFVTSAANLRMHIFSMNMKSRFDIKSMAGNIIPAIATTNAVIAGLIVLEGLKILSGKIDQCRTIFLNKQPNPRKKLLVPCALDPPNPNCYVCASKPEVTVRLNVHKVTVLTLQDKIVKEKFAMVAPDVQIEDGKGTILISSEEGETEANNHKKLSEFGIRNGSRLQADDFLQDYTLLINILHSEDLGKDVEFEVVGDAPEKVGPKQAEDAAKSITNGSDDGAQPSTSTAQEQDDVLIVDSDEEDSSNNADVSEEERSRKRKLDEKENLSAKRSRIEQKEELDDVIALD

SUMO-activating enzyme [14] = target: T3, SUMO-activating enzyme; assay: SUMOylation inhibitor hit validation, confirmation, SUMOylation inhibitor project, biochemical, AlphaScreen (AID 2018); assay type: functional
[15] = growth suppression of PTEN-null colon cells, dose response, cell-based, HCT116 PTEN knockout (AID 1047); assay type: functional;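 further: HCT116 colon tumor cells with PTEN knocked out; cells exposed to compound for 60 hours before readout; potency for loss of cell viability measured by luminescence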
[16] = growth suppression of beta-catenin-knockout colon cells, dose response, cell-based, HCT116, human colon tumor (AID 1045); assay type: functional;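 further: HCT116 colon tumor cells with beta catenin knocked out; cells exposed to compound for 60 hours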
CAAX prenyl protease 2 = CAAX prenyl protease 2 (Saccharomyces cerevisiae S288c, UniProt Q03530); assay type: biochemical
CAAX prenyl protease 2, sequence (Q03530 whole entry): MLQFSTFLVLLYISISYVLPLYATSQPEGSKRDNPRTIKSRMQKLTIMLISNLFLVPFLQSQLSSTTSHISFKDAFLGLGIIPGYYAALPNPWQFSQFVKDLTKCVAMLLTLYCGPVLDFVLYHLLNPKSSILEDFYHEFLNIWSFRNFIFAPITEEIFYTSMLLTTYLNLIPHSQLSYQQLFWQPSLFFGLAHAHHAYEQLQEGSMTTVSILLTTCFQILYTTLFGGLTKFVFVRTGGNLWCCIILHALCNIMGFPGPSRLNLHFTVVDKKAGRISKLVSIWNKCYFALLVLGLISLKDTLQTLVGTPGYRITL

Vero = assay: West Nile virus antiviral activity, cell-based, CPE readout (AID 1621); assay type: functional; conditions: Chlorocebus sabaeus
[17] = target: 1-acylglycerol-3-phosphate O-acyltransferase ABHD5/Perilipin-5 (Homo sapiens, UniProt Q00G26+Q8WTS1); assay: Luminescence-based biochemical high throughput dose response assay for inhibitors of the interaction of the lipase co-activator protein, abhydrolase domain containing 5 (ABHD5) with perilipin-5 (MLDP; PLIN5) (2K validation set). [Related pubchem assays (depositor defined):AID493035, AID493241]
Perilipin-1/ABHD5 = Perilipin-1/ABHD5 (Homo sapiens, UniProt O60240+Q8WTS1); assay: Luminescence-based biochemical high throughput dose response assay for inhibitors of the interaction of the lipase co-activator protein, abhydrolase domain containing 5 (ABHD5) with perilipin-1 (PLIN1) (2K validation set). [Related pubchem assays (depositor defined):AID493027, AID493057]
Trypsin = Trypsin (Sus scrofa, UniProt P00761); assay: porcine trypsin inhibitors, dose response, selectivity assay for Rce1 protease inhibitor project, biochemical, quenched peptide fluorescence, cherry-pick (AID 488789)
Trypsin, sequence (P00761 whole entry): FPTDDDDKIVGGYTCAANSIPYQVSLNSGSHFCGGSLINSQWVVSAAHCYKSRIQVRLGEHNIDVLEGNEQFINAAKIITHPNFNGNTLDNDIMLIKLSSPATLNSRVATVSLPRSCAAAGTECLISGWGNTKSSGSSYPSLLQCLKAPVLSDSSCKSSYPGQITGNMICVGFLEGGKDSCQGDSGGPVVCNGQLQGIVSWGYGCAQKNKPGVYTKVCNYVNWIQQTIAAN

[18] = target: T4, DNA repair and recombination protein RAD54-like (Homo sapiens, UniProt Q92698); assay: inhibitors of human RAD54 branch migration, confirmation, biochemical, fluorescence, cherry-picked samples, dose series (AID 651657); assay type: functional
T4 sequence (Q92698 whole entry): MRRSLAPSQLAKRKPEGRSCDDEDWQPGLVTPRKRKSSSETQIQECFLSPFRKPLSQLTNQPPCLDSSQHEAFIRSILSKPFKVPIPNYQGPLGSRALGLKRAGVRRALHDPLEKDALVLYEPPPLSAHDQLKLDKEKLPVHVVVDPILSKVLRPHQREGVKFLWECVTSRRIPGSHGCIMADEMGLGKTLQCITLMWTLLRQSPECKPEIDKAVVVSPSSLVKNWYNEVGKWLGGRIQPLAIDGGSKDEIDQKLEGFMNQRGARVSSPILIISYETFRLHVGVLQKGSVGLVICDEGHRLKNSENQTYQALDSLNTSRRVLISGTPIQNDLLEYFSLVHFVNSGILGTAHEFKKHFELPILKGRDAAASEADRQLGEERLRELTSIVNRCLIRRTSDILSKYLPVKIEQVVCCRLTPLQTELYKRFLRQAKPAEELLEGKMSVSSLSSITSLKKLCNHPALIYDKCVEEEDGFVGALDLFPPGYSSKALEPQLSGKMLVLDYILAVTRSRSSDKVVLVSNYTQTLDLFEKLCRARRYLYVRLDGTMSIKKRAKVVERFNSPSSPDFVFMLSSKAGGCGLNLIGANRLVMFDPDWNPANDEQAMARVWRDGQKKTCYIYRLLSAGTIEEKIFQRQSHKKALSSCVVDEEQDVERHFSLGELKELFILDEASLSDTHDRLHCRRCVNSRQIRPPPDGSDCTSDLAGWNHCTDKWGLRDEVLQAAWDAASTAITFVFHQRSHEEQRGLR

DNA (cytosine-5)-methyltransferase 1, sequence (P26358 whole entry): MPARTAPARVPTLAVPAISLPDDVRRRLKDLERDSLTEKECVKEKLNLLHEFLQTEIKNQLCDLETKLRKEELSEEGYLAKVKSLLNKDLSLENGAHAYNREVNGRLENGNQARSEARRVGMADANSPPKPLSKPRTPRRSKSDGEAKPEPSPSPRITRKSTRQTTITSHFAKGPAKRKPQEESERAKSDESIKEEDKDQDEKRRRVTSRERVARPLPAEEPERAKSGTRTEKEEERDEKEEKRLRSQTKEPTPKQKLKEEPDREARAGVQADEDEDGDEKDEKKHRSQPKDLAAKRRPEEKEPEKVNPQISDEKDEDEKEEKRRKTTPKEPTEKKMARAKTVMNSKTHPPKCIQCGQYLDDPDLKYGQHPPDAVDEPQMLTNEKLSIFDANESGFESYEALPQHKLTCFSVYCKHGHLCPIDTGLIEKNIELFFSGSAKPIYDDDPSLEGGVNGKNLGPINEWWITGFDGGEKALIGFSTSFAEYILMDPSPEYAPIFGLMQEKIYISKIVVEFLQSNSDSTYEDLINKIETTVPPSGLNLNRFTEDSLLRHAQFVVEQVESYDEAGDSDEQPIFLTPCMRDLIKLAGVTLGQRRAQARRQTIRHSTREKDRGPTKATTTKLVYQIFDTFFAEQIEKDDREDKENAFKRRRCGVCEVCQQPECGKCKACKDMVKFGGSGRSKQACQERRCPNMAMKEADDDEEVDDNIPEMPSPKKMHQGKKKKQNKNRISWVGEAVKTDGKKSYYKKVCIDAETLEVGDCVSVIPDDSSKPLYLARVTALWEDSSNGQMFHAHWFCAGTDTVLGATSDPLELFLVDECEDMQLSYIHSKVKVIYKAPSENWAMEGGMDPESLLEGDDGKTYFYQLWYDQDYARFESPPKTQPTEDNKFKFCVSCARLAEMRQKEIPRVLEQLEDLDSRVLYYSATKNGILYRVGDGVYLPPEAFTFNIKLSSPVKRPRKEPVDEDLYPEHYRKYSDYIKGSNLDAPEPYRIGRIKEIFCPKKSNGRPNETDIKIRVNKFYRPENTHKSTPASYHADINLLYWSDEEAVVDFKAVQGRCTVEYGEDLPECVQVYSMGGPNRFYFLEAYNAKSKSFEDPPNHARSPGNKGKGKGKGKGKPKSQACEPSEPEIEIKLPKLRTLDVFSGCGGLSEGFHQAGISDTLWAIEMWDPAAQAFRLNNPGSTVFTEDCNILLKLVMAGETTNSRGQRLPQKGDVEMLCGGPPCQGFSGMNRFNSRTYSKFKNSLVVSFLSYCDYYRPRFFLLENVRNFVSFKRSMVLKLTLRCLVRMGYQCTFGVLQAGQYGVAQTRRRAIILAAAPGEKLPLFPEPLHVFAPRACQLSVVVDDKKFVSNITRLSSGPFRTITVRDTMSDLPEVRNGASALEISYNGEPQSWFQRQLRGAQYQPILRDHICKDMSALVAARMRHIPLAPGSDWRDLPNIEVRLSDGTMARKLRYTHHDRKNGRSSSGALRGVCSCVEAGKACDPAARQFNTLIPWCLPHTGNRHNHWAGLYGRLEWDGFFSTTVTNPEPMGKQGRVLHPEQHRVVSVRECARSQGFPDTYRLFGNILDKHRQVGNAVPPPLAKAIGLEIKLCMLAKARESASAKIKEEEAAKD

Compound: N#Cc1c(SCC(=O)Nc2nc3ccc(Br)cc3s2)sc2c(O)cc(=O)[nH]c12
- IC50 [1]: 8.28 µM (active)
- IC50 (Hexokinase HKDC1): 24.8 µM (inactive)
- IC50 [2]: 12.8 µM (active)
- IC50 [3]: 3.94 µM (active)
- IC50 [4]: > 109 µM (not active)
- IC50 (Bcl-2-like protein 1): > 109 µM (not active)
- IC50 (Prothrombin): 71.2 µM (active)

Compound: OC1CCN(c2cc(-c3ccccc3)nc3cc(-c4ccc(F)cc4)nn23)CC1
- AC50 [5]: 4.72 µM (active)
- AC50 [6]: 11.8 µM (active)

Compound: O=C(O)c1ccc([N+](=O)[O-])c2c1NC(C(=O)O)C1CC=CC21 (stereo unspecified)
- IC50 [7]: > 100 µM (inactive)
- IC50 [8]: > 100 µM (not active)
- IC50 [9]: > 100 µM (inactive)
- IC50 [10]: 90.6 µM (active)
- IC50 [11]: > 100 µM (not active)
- IC50 [12]: 92.9 µM (active)

Compound: COc1ccc(OC)c(/C=C2\SC(NNC(=O)c3ccc4ccccc4c3)=NC2=O)c1
- AC50 [5]: 2.36 µM (active)
- IC50 (SUMO-activating enzyme [13]): 18.1 µM (active)
- IC50 (SUMO-activating enzyme [14]): 2.14 µM (active)

Compound: COc1ccc(C2c3c(ncn(CCN4CCOCC4)c3=N)Oc3ccc4ccccc4c32)cc1 (stereo unspecified)
- EC50 [15]: 12.7 µM (active)
- EC50 [16]: 11.1 µM (active)
- AC50 (CAAX prenyl protease 2): 15.7 µM (active)
- IC50 (Vero): 18.7 µM (active)

Compound: O=C(CN1C(=O)/C(=C/c2cccc(Br)c2)SC1=S)Nc1cccnc1
- IC50 [17]: 16 µM (inactive)
- IC50 (Perilipin-1/ABHD5): 20.8 µM (inactive)

Compound: COc1ccc2c(c1)c1ncn(CCN3CCCC3)c(=O)c1n2C
- AC50 (Trypsin): 19.7 µM (active)
- AC50 [18]: 23.3 µM (active)
